Data: patent US20120083522A1, “MODULATION OF INFLAMMATORY RESPONSES BY FACTOR XI” (Isis Pharmaceuitcals, inc., priority 2009, published 2012)
In the oligonucleotide strings, read from the 5' end, every base follows the letter of its sugar. An asterisk marks phosphorothioate; unmarked linkages are phosphodiester. Other units and linkages are bracketed, terminal groups are in braces. A string of capitals states the bases alone. e = 2'-O-(2-methoxyethyl) (MOE); [5mC] = 5-methylcytosine; d = 2'-deoxy (DNA)

Tests used:
Format in all cases: in vivo
[1] = Cynomolgus monkeys: hematology assays (Example 29)
Method: (§1) Groups, each consisting of two male and three female monkeys, were injected subcutaneously with ISIS 416838, ISIS 416850, ISIS 416858, ISIS 416864, or ISIS 417002 in escalating doses. Antisense oligonucleotide was administered to the monkeys at 5 mg/kg three times per a week for week 1; 5 mg/kg twice per week for weeks 2 and 3; 10 mg/kg three times per week for week 4; 10 mg/kg twice per week for weeks 5 and 6; 25 mg/kg three times per week for week 7; and 25 mg/kg twice per week for weeks 8, 9, 10, 11, and 12. One control group, consisting of two male and three female monkeys, was injected subcutaneously with PBS according to the same dosing regimen. An additional experimental group, consisting of two male and three female monkeys, was injected subcutaneously with ISIS 416850 in a chronic, lower dose regimen. Antisense oligonucleotide was administered to the monkeys at 5 mg/kg three times per week for week 1; 5 mg/kg twice per week for week 2 and 3; 10 mg/kg three times per week for week 4; and 10 mg/kg twice per week for weeks 5 to 12. Body weights were measured weekly. Blood samples were collected 14 days and 5 days before the start of treatment and subsequently once per week for Factor XI protein activity analysis in plasma and measurement of various hematologic factors. On day 85, the monkeys were euthanized by exsanguination while under deep anesthesia, and organs harvested for further analysis.
The ISIS oligonucleotide, ISIS 416850, given with the chronic dose regimen is distinguished from the other oligonucleotides with an asterisk (*).

[2] = Cynomolgus monkeys: body and organ weights (Example 29); conditions: for Kidney weight / Liver weight / Spleen weight: after euthanasia; for Body weight: escalating doses 5, 10, 25 mg/kg s.c.
Method: as §1
Body weights were taken once weekly throughout the dosing regimen. […] Organ weights were taken after the animals were euthanized and livers, kidneys and spleens were harvested and weighed. […] The ISIS oligonucleotide, ISIS 416850, given with the chronic dose regimen is distinguished from the other oligonucleotides with an asterisk (*).

Factor XI protein = assay: Cynomolgus monkeys: plasma Factor XI protein ELISA (Example 29); conditions: escalating doses 5, 10, 25 mg/kg s.c.
Method: as §1
Plasma samples from all monkey groups taken on different days were analyzed by a sandwich-style ELISA assay (Affinity Biologicals Inc.) using an affinity-purified polyclonal anti-Factor XI antibody as the capture antibody and a peroxidase-conjugated polyclonal anti-Factor XI antibody as the detecting antibody. Monkey plasma was diluted 1:50 for the assay. Peroxidase activity was expressed by incubation with the substrate o-phenylenediamine. The color produced was quantified using a microplate reader at 490 nm and was considered to be proportional to the concentration of Factor XI in the samples.
The results are presented in Table 122, expressed as percentage reduction relative to that of the PBS control.

In the case of “ISIS 416838: gapmer of Table 6 (antisense eG*e[5mC]*eA*eA*e[5mC]*d[5mC]*dG*dG*dG*dA*dT*dG*dA*dT*dG*eA*eG*eT*eG*e[5mC])”, the platelet count ([1]; day 8) is reported as 387000 µL⁻¹, the platelet count ([1]; day 15) is reported as 387000 µL⁻¹ and the platelet count ([1]; day 22) is reported as 319000 µL⁻¹. For the same substance, the platelet count ([1]; day 29) was 337000 µL⁻¹, the platelet count ([1]; day 36) was 370000 µL⁻¹ and the platelet count ([1]; day 43) was 365000 µL⁻¹. For the same substance, the platelet count ([1]; day 50) was 372000 µL⁻¹, the platelet count ([1]; day 57) was 371000 µL⁻¹ and the platelet count ([1]; day 64) was 358000 µL⁻¹. It also gave a platelet count ([1]; day 71) of 365000 µL⁻¹, a platelet count ([1]; day 78) of 348000 µL⁻¹ and a platelet count ([1]; day 85) of 344000 µL⁻¹. It also gave a platelet count ([1]; day −5) of 425000 µL⁻¹, a platelet count ([1]; day −14) of 377000 µL⁻¹ and a Kidney weight [2] of 12 g. The Liver weight [2] was 63 g, the Spleen weight [2] was 5 g and the Body weight ([2]; day 1) was 2720 g. It also gave a Body weight ([2]; day 8) of 2592 g, a Body weight ([2]; day 15) of 2642 g and a Body weight ([2]; day 22) of 2702 g. For the same substance, the Body weight ([2]; day 29) was 2689 g, the Body weight ([2]; day 36) was 2708 g and the Body weight ([2]; day 43) was 2700 g. The Body weight ([2]; day 50) was 2731 g, the Body weight ([2]; day 57) was 2737 g and the Body weight ([2]; day 64) was 2746 g. For the same substance, the Body weight ([2]; day 71) was 2869 g, the Body weight ([2]; day 78) was 2766 g and the “Inhibition of Factor XI protein relative to the PBS control” value (Factor XI protein; day 8) was 3%. For the same substance, the “Inhibition of Factor XI protein relative to the PBS control” value (Factor XI protein; day 15) was 4%, the “Inhibition of Factor XI protein relative to the PBS control” value (Factor XI protein; day 22) was 5% and the “Inhibition of Factor XI protein relative to the PBS control” value (Factor XI protein; day 29) was 8%. The “Inhibition of Factor XI protein relative to the PBS control” value (Factor XI protein; day 36) was 11%, the “Inhibition of Factor XI protein relative to the PBS control” value (Factor XI protein; day 43) was 5% and the “Inhibition of Factor XI protein relative to the PBS control” value (Factor XI protein; day 50) was 8%. For the same substance, the “Inhibition of Factor XI protein relative to the PBS control” value (Factor XI protein; day 57) was 10%, the “Inhibition of Factor XI protein relative to the PBS control” value (Factor XI protein; day 64) was 11% and the “Inhibition of Factor XI protein relative to the PBS control” value (Factor XI protein; day 71) was 12%. For the same substance, the “Inhibition of Factor XI protein relative to the PBS control” value (Factor XI protein; day 78) was 10%, the “Inhibition of Factor XI protein relative to the PBS control” value (Factor XI protein; day 85) was 10% and the “Inhibition of Factor XI protein relative to the PBS control” value (Factor XI protein; day −5 (before treatment)) was 0%. For the same substance, the “Inhibition of Factor XI protein relative to the PBS control” value (Factor XI protein; day −14 (before treatment)) was 0%.

In the case of “ISIS 416864: gapmer of Table 8 (antisense eG*eG*e[5mC]*eA*eG*d[5mC]*dG*dG*dA*d[5mC]*dG*dG*d[5mC]*dA*dT*eT*eG*eG*eT*eG)”, the platelet count ([1]; day 8) is reported as 438000 µL⁻¹, the platelet count ([1]; day 15) is reported as 439000 µL⁻¹ and the platelet count ([1]; day 22) is reported as 364000 µL⁻¹. For the same substance, the platelet count ([1]; day 29) was 397000 µL⁻¹, the platelet count ([1]; day 36) was 428000 µL⁻¹ and the platelet count ([1]; day 43) was 351000 µL⁻¹. For the same substance, the platelet count ([1]; day 50) was 419000 µL⁻¹, the platelet count ([1]; day 57) was 409000 µL⁻¹ and the platelet count ([1]; day 64) was 383000 µL⁻¹. It also gave a platelet count ([1]; day 71) of 394000 µL⁻¹, a platelet count ([1]; day 78) of 366000 µL⁻¹ and a platelet count ([1]; day 85) of 387000 µL⁻¹. The platelet count ([1]; day −5) was 456000 µL⁻¹, the platelet count ([1]; day −14) was 434000 µL⁻¹ and the Kidney weight [2] was 14 g. The Liver weight [2] was 53 g, the Spleen weight [2] was 5 g and the Body weight ([2]; day 1) was 2890 g. For the same substance, the Body weight ([2]; day 8) was 2784 g, the Body weight ([2]; day 15) was 2817 g and the Body weight ([2]; day 22) was 2857 g. It also gave a Body weight ([2]; day 29) of 2863 g, a Body weight ([2]; day 36) of 3327 g and a Body weight ([2]; day 43) of 3355 g. The Body weight ([2]; day 50) was 3408 g, the Body weight ([2]; day 57) was 3387 g and the Body weight ([2]; day 64) was 3384 g. The Body weight ([2]; day 71) was 2942 g, the Body weight ([2]; day 78) was 2822 g and the “Inhibition of Factor XI protein relative to the PBS control” value (Factor XI protein; day 8) was 7%. The “Inhibition of Factor XI protein relative to the PBS control” value (Factor XI protein; day 15) was 9%, the “Inhibition of Factor XI protein relative to the PBS control” value (Factor XI protein; day 22) was 7% and the “Inhibition of Factor XI protein relative to the PBS control” value (Factor XI protein; day 29) was 10%. For the same substance, the “Inhibition of Factor XI protein relative to the PBS control” value (Factor XI protein; day 36) was 9%, the “Inhibition of Factor XI protein relative to the PBS control” value (Factor XI protein; day 43) was 9% and the “Inhibition of Factor XI protein relative to the PBS control” value (Factor XI protein; day 50) was 10%. The “Inhibition of Factor XI protein relative to the PBS control” value (Factor XI protein; day 57) was 7%, the “Inhibition of Factor XI protein relative to the PBS control” value (Factor XI protein; day 64) was 5% and the “Inhibition of Factor XI protein relative to the PBS control” value (Factor XI protein; day 71) was 10%. The “Inhibition of Factor XI protein relative to the PBS control” value (Factor XI protein; day 78) was 9%, the “Inhibition of Factor XI protein relative to the PBS control” value (Factor XI protein; day 85) was 8% and the “Inhibition of Factor XI protein relative to the PBS control” value (Factor XI protein; day −5 (before treatment)) was 5%. For the same substance, the “Inhibition of Factor XI protein relative to the PBS control” value (Factor XI protein; day −14 (before treatment)) was 0%.

Substance “ISIS 417002: gapmer of Table 8 (antisense eG*eG*dT*dG*d[5mC]*dA*d[5mC]*dA*dG*dT*dT*dT*d[5mC]*dT*dG*eG*e[5mC]*eA*eG*eG)” has a platelet count ([1]; day 8) of 435000 µL⁻¹, a platelet count ([1]; day 15) of 410000 µL⁻¹ and a platelet count ([1]; day 22) of 377000 µL⁻¹. The platelet count ([1]; day 29) was 410000 µL⁻¹, the platelet count ([1]; day 36) was 415000 µL⁻¹ and the platelet count ([1]; day 43) was 393000 µL⁻¹. The platelet count ([1]; day 50) was 389000 µL⁻¹, the platelet count ([1]; day 57) was 403000 µL⁻¹ and the platelet count ([1]; day 64) was 436000 µL⁻¹. The platelet count ([1]; day 71) was 490000 µL⁻¹, the platelet count ([1]; day 78) was 432000 µL⁻¹ and the platelet count ([1]; day 85) was 418000 µL⁻¹. The platelet count ([1]; day −5) was 466000 µL⁻¹, the platelet count ([1]; day −14) was 442000 µL⁻¹ and the Kidney weight [2] was 15 g. It also gave a Liver weight [2] of 51 g, a Spleen weight [2] of 5 g and a Body weight ([2]; day 1) of 2640 g. For the same substance, the Body weight ([2]; day 8) was 2523 g, the Body weight ([2]; day 15) was 2571 g and the Body weight ([2]; day 22) was 2617 g. For the same substance, the Body weight ([2]; day 29) was 2622 g, the Body weight ([2]; day 36) was 2631 g and the Body weight ([2]; day 43) was 2630 g. The Body weight ([2]; day 50) was 2652 g, the Body weight ([2]; day 57) was 2654 g and the Body weight ([2]; day 64) was 2598 g. For the same substance, the Body weight ([2]; day 71) was 2727 g, the Body weight ([2]; day 78) was 2570 g and the “Inhibition of Factor XI protein relative to the PBS control” value (Factor XI protein; day 8) was 0%. For the same substance, the “Inhibition of Factor XI protein relative to the PBS control” value (Factor XI protein; day 15) was 4%, the “Inhibition of Factor XI protein relative to the PBS control” value (Factor XI protein; day 22) was 2% and the “Inhibition of Factor XI protein relative to the PBS control” value (Factor XI protein; day 29) was 8%. The “Inhibition of Factor XI protein relative to the PBS control” value (Factor XI protein; day 36) was 8%, the “Inhibition of Factor XI protein relative to the PBS control” value (Factor XI protein; day 43) was 9% and the “Inhibition of Factor XI protein relative to the PBS control” value (Factor XI protein; day 50) was 13%. For the same substance, the “Inhibition of Factor XI protein relative to the PBS control” value (Factor XI protein; day 57) was 24%, the “Inhibition of Factor XI protein relative to the PBS control” value (Factor XI protein; day 64) was 26% and the “Inhibition of Factor XI protein relative to the PBS control” value (Factor XI protein; day 71) was 30%. For the same substance, the “Inhibition of Factor XI protein relative to the PBS control” value (Factor XI protein; day 78) was 22%, the “Inhibition of Factor XI protein relative to the PBS control” value (Factor XI protein; day 85) was 23% and the “Inhibition of Factor XI protein relative to the PBS control” value (Factor XI protein; day −5 (before treatment)) was 0%. The “Inhibition of Factor XI protein relative to the PBS control” value (Factor XI protein; day −14 (before treatment)) was 0%.
